“And” between values parts separate entries of the source, which are not always exact repeats. Identical values can stand only once.
Columns and labels:
[1] = Determination of absorbance maximum and molar extinction coefficient (ε) in KMOPS buffer; type: physicochemical; conditions: for ε (molar extinction coefficient): at λmax
Procedure: Determination of the Molar Extinction Coefficient (ε).
(§1) A weighed portion of BHQ-O-5HT was dissolved in methanol. A measured aliquot of this solution was withdrawn and placed in KMOPS buffer (3.0 mL) and mixed thoroughly to generate a 100-μM solution of BHQ-O-5HT. The absorbance A of this solution at τmax=368 nm was measured. This method was repeated twice with different masses of BHQ-O-5HT.
Determination of the Molar Extinction Coefficient (s).
as §1, with “BHQ-VAA” for “BHQ-O-5HT”, “BHQ-VAA.” for “BHQ-O-5HT.”, “λmax=368” for “τmax=368”

[2] = Determination of the uncaging quantum efficiency (Qu), 1-photon photolysis at 365 nm; type: physicochemical; conditions: for Qu (uncaging quantum efficiency): 365±15 nm, KMOPS
Procedure: Determination of the Uncaging Quantum Efficiency (Qu).
(§2) The quantum efficiency was calculated using the equation Qu=(Iσt90%)^−1, where I is the irradiation intensity in einstein·cm^−2, σ is the decadic extinction coefficient (1,000 times ε) and t90% is the time in seconds required for the conversion of 90% of the starting material to product. To find t90%, a solution of BHQ-O-5HT in KMOPS was prepared and placed in a cuvette along with a small stir bar. While stirring, the solution was irradiated with UV light from a mercury lamp (Spectroline SB-100P, Spectronics Corporation) equipped with two glass filters (CS0-52, CS7-60, Ace Glass) so that the wavelength was restricted to 365±15 nm. Periodically, 20-μL aliquots were removed and analyzed by HPLC. The time points collected were as follows: 0, 5, 10, 20, 30, 60, 90, and 120 s. Percent BHQ-O-5HT remaining was plotted verses time of photolysis. A simple single exponential decay curve provided the best fit for the data and was used to extrapolate t90%. The lamp's UV intensity I was measured using potassium ferrioxalate actinometry. Initially, 6 mM potassium ferrioxalate solution (3 mL) was irradiated with the mercury lamp for 60 s. A portion of this solution (2 mL) was combined with aqueous buffer (3 mL), 0.1% phenanthroline solution (3 mL), and 2M KF solution (1 mL) in a 25-mL volumetric flask. Deionized water was added to generate a 25 mL solution. A blank solution was also prepared using the same method, but the potassium ferrioxalate used in the blank was not irradiated. Both solutions were allowed to sit for one hour and the blank was then used as a baseline against which the absorbance of the irradiated solution was measured at 510 nm. The following equation was used to calculate lamp intensity: […]
where V3 is the volume of dilution (25 mL), V2 is the volume of irradiated potassium ferrioxalate solution taken for analysis (2 mL), ΔD510 is the absorption of the solution at 510 nm, Σ510 is the actinometry extinction coefficient (1.11×10^4 M^−1 cm^−1),)Fe is the quantum yield for production of ferrous ions from potassium ferrioxalate at 365 nm, and t represents the time of irradiation. The ΔD510 value used for calculations is the average of two measurements taken before and after irradiation of BHQ-O-5HT. Compilation of the measurements yielded an uncaging quantum efficiency Qu, of 0.30. The experiment was repeated for BHQ-N-5HT, and compilation of the measurements yielded an uncaging quantum efficiency Qu of 0.10.
as §2, with “c)” for “ε)”, “BHQ-VAA” for “BHQ-O-5HT”, “irradiated.” for “irradiated. Both solutions were allowed to sit for one hour and the blank was then used as a baseline against which the absorbance of the irradiated solution was measured at 510 nm. The following equation was used to calculate lamp intensity:”

[3] = Determination of two-photon action cross-sections (δu) at 740 nm; type: physicochemical
Procedure: Determination of Two-photon Action Cross-Sections (δu).
A portion of BHQ-O-5HT was dissolved in KMOPS buffer and the concentration of the solution was found using UV-Vis absorption in conjunction with Beer's law. Aliquots (25 μL) of this solution were placed in a microcuvette (10×1×1 mm illuminated dimensions) and irradiated with a fs-pulsed and mode-locked Ti:Sapphire laser (Chameleon Ultra II, Coherent) with 740-nm light at an average power of 300 mW. Three samples were irradiated for each of the following time periods: 0, 5, 10, 20, and 40 min. The samples were compiled and analyzed by HPLC. A solution of fluorescein at pH 9.0 was prepared to act as a standard for BHQ-O-5HT because of its well-characterized 2PE cross-section (δaF=30 GM at 740 nm) and quantum yield (QF2=0.9). UV-V is absorption spectroscopy was used to correlate absorption at 488 nm to precise concentration. Aliquots (25 μL) of fluorescein solution were placed in the microcuvette and irradiated by the laser under the same conditions used for the BHQ-O-5HT solution. The fluorescence output of the solution was measured with a radiometer before and after the BHQ-O-5HT samples were irradiated and the two values were averaged. The following equation was used to calculate the two-photon action cross-section for BHQ-O-5HT:
where Np is the number of product molecules formed per second (determined by HPLC), φ is the collection efficiency of the detector (SED033 on an IL-1700, International Light) used to measure the fluorescence of fluorescein passing through the cuvette window and through a 535/545 nm bandpass filter at a right angle to the laser's beam, CF is the concentration of fluorescein, <F(t)> is the time averaged fluorescent photon flux (photons/s) of fluorescein and CS is the initial concentration of the caged compound. The measurements were compiled and the two-photon action cross-section for BHQ-O-5HT was determined to be 0.50 GM. The experiment was repeated for BHQ-N-5HT, and the two-photon action cross-section was determined to be 0.42 GM.
Determination of Two photon Action Cross-Sections (δu).
A portion of BHQ-VAA was dissolved in KMOPS buffer and the concentration of the solution was found using UV-Vis absorption in conjunction with Beer's law. Aliquots (25 μL) of this solution were placed in a microcuvette (10×1×1 mm illuminated dimensions) and irradiated with a fs-pulsed and mode-locked Ti: Sapphire laser (Chameleon Ultra II, Coherent) with 740-nm light at an average power of 300 mW. Three samples were irradiated for each of the following time periods: 0, 5, 10, 20, and 40 min. The samples were compiled and analyzed by HPLC. […] The fluorescence output of the solution was measured with a radiometer before and after the BHQ-VAA samples were irradiated and the two values were averaged. […]

[4] = Determination of the dark hydrolysis rate (τdark) in KMOPS; type: physicochemical; conditions: for τdark (time constant for dark hydrolysis): 100 μM in KMOPS, stored in the dark
Procedure: Determination of the Dark Hydrolysis Rate (τdark).
(§3) Three 100-μM solutions of BHQ-O-5HT in KMOPS were created and stored in the dark. Aliquots (20 μL) were removed periodically from each solution and analyzed by HPLC. The percents remaining for each time point for each solution were averaged and plotted versus time. A simple single exponential decay curve provided the best fit. The time constant for dark hydrolysis (τdark) was determined to be 260 h. The experiment was repeated for BHQ-N-5HT, and the time constant for dark hydrolysis (τdark) was determined to be 300 h.
as §3, with “BHQ-VAA” for “BHQ-O-5HT”, “140” for “260”, “h.” for “h. The experiment was repeated for BHQ-N-5HT, and the time constant for dark hydrolysis (τdark) was determined to be 300 h.”

[5] = tested on: ex vivo zebrafish brain (optic tectum); experiment: Electrophysiological recording of PTZ-induced seizure activity in ex vivo zebrafish brain; conditions: PTZ 15 mM-induced seizure
Procedure: BHQ-O-5HT Mediates the Light Activation of 5HT in an Ex Vivo Zebrafish Brain Preparation (FIG. 1.1).
A microelectrode inserted into the optic tectum was used to record seizure activity induced by application of pentalenetetrazole (PTZ, 15 mM). The ictal and interictal spikes can be observed at regular intervals. After 1040 s, BHQ-O-5HT (1 mM) was added. No change in the amplitude of the ictal spikes was observed. At 1640 s, the preparation was exposed to a brief (˜1 ms) flash of 365-nm light. […] Since 5HT is an inhibitor of seizures,^1,2 this is the expected result.
Procedure for electrophysiological recording in ex vivo zebrafish brain:
An adult zebrafish brain was obtained by dissection in oxygenated artificial cerebrospinal fluid (ACSF).* A sharp glass pipet microelectrode (15 MΩ impedance), loaded with ACSF, was inserted into the optic tectum. A chloride-coated silver wire (0.010 in., A-M Systems, Inc. Sequim, Wash.) reference (15 MΩ impedance) was placed contra-laterally, adjacent to the brain. Neuronal activity was recorded using an MDA-41 AC Differential Amplifier (Bak Electronics, Mount Airy, Md.) and a Tektronix DPO 3012 Digital Phosphor Oscilloscope (Beaverton, Oreg.) using MATLAB. Baseline activity was recorded for 5 min followed by introduction of PTZ (15 mM). […] The response was recorded for 30 min.

[6] = tested on: cultured dorsal root ganglia (DRG) cells; type: cell-based, mouse
[7] = Table 1.1, KMOPS buffer, 100 μM
[8] = BHQ-OPh, previous unpublished work (Zhu & Dore)
[9] = Table 2.1, KMOPS buffer, 100 μM

For O=C(NCCc1c[nH]c2ccc(O)cc12)OCc1ccc2ccc(O)c(Br)c2n1 [BHQ-N-5HT], the λmax [1, 7] was 370 nm, the “ε (molar extinction coefficient)” value [1, 7] was 2,100 M^−1 cm^−1 and the Sensitivity Qu × ε ([2]; Table 1.1) was 210 M⁻¹ cm⁻¹. For the same compound, the “Qu (uncaging quantum efficiency)” value ([2]; Table 1.1) was 0.10, the “δu (two-photon uncaging action cross-section)” value ([3]; Table 1.1, KMOPS) was 0.42 GM and the “τdark (time constant for dark hydrolysis)” value ([4]; Table 1.1) was 300 h.
In the case of NCCc1c[nH]c2ccc(OCc3ccc4ccc(O)c(Br)c4n3)cc12 [BHQ-O-5HT], the λmax [1, 7] is reported as 368 nm, the “ε (molar extinction coefficient)” value [1, 7] is reported as 2,000 M^−1 cm^−1 and the Sensitivity Qu × ε ([2]; Table 1.1) is reported as 600 M⁻¹ cm⁻¹. For the same compound, the “Qu (uncaging quantum efficiency)” value ([2]; Table 1.1) was 0.30, the “δu (two-photon uncaging action cross-section)” value ([3]; Table 1.1, KMOPS) was 0.50 GM and the “change in amplitude of ictal spikes, before light” value ([5]; compound 1 mM added, no irradiation) was “No change”. The “change in amplitude of ictal spikes, after light flash” value ([5]; compound 1 mM, brief (~1 ms) flash of 365-nm light) was “immediate reduction in the amplitude of the ictal spikes” and the “τdark (time constant for dark hydrolysis)” value ([4]; Table 1.1) was 260 h.
For Oc1ccc2ccc(COc3ccccc3)nc2c1Br [BHQ-OPh], the ε [1, 8] was 3200 M⁻¹ cm⁻¹, the λmax [1, 8] was 369 and the “quantum efficiency Qu” value ([2]; 1-photon photolysis at 365 nm, pH 7.2 KMOPS) was 0.19. The “2-photon photolysis uncaging action cross section δu” value ([3]; pH 7.2 KMOPS) was 0.56 GM and the “time constant for hydrolysis in the dark τdark” value ([4]; simulated physiological conditions, dark) was 95 h.
For COc1cc(CNC(C)=O)ccc1OCc1ccc2ccc(O)c(Br)c2n1 [BHQ-VAA], the λmax [1, 9] was 368 nm and 370 nm, the “ε (molar extinction coefficient)” value [1, 9] was 2700 M⁻¹ cm⁻¹ and the Sensitivity Qu × ε ([2]; Table 2.1) was 486 M⁻¹ cm⁻¹. The “Qu (uncaging quantum efficiency)” value ([2]; Table 2.1) was 0.18, the “δu (two-photon uncaging action cross-section)” value ([3]; Table 2.1, KMOPS) was 0.61 GM and the “τdark (time constant for dark hydrolysis)” value ([4]; Table 2.1) was 140 h.
For CCCCCCCCC(=O)NCc1ccc(OCc2ccc3ccc(O)c(Br)c3n2)c(OC)c1 [BHQ-VNA], the “electrophysiological response after light pulse” value [6] was “immediate potential change is observed that is indistinguishable from the VNA trace” and the “electrophysiological response, bath applied, without light” value [6] was “does not have any affect”.
For CCCCCCCCC(=O)NCc1ccc(O)c(OC)c1 [VNA, N-vanillyl nonanamide, reference compound], the “electrophysiological response (extracellular potential) on topical application” value ([6]; single DRG neuron, via TRPV1 channels) was “strong and immediate electrophysiological response”.

From patent US20140155362A1, “BHQ-CONJUGATES, AND RELATED COMPOUNDS, METHODS OF MAKING THE SAME, AND METHODS OF USE THEREOF” (priority 2011, published 2014)
